The assay deals with T1, human DP1 receptor (Homo sapiens, UniProt Q13258).
T1 construct: tissue Biological Specialty Corporation; host or cells: human platelet membranes
T1 sequence (Q13258 1-359): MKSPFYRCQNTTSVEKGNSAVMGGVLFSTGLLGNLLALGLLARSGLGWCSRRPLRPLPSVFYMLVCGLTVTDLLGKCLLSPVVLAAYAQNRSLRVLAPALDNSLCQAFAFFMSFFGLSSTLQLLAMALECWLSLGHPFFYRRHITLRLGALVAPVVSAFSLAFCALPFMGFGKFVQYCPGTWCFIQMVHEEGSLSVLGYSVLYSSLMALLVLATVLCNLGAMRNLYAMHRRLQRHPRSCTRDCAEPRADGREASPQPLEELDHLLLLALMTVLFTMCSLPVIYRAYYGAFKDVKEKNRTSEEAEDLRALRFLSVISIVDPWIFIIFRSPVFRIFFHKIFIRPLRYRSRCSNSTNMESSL
In words: DP1 radioligand binding assay ([3H]BWA868C, platelet membranes). Conditions: [3H]BWA868C binding, human platelet membranes; read-out: hDP1. The protocol:
The ability of a compound to bind to the human DPI receptor was evaluated via a radioligand membrane binding assay using the DP1 selective synthetic ligand [^311]BWA868C. Packed human platelets (Biological Specialty Corporation), were resuspended in 6 volumes of Hepes/HBSS buffer (10 mM Hepes, 1 mM DTT in Hanks Balanced Salt Solution (HBSS)), lysed and centrifuged at 75,000×g to pellet the membranes. Membranes were resuspended in Hepes/HBSS buffer to approximately 12 mg protein/ml. Membranes (20 μg protein/well) are incubated in 96-well plates with 2 nM [^3H]BWA868C and test compound in Assay Buffer (50 mM Hepes, 10 mM MnCl2, 1 mM EDTA, plus or minus 0.2% human serum albumin, pH 7.4) for 60 minutes at room temperature. The reactions are terminated by rapid filtration through Whatman GF/C glass fibre filter plates. The filter plates were pre-soaked in 0.33% polyethylenimine for 30 minutes at room temperature then washed in Wash Buffer (50 mM Hepes, 0.5 M NaCl pH 7.4) prior to harvesting. After harvesting, the filter plates are washed 3 times with 1 ml cold Wash Buffer then dried. Scintillant is then added to the plates and the radioactivity retained on the filters is determined on a Packard TopCount (Perkin Elmer). Specific binding is determined as total radioactive binding minus non-specific binding in the presence of 10 μM BW A868C. IC50s were determined using GraphPad prism analysis of drug titration curves.
Take `CCN(Cc1cc(C(F)(F)F)ccc1-c1cc(CC(=O)O)ccc1OC)C(=O)NCc1ccccc1` [Compound 1-96, [2′-(3-Benzyl-1-ethyl-ureidomethyl)-6-methoxy-4′-trifluoromethyl-biphenyl-3-yl]-acetic acid]: the IC50 is 1 to 30 µM.
Consider `COc1ccc(CC(=O)O)cc1-c1ccc(C(F)(F)F)cc1CN(CC(F)(F)F)C(C)=O` [Compound 1-4, (2′-{[Acetyl-(2,2,2-trifluoro-ethyl)-amino]-methyl}-6-methoxy-4′-trifluoromethyl-biphenyl-3-yl)-acetic acid], for which the IC50 is 1 to 30 µM.
In the case of `CCN(Cc1cc(C(F)(F)F)ccc1-c1cc(CC(=O)O)ccc1OC)C(=O)C(C)Oc1ccccc1` (stereo not shown) [Compound 1-45, (2′-{[Ethyl-(2-phenoxy-propionyl)-amino]-methyl}-6-methoxy-4′-trifluoromethyl-biphenyl-3-yl)-acetic acid] it was 1 to 30 µM.
On to `CCOc1ccc(CC(=O)O)cc1-c1ccc(C(F)(F)F)cc1CN(CC)C(=O)OCc1ccccc1` [Compound 1-129, {2′-[(Benzyloxycarbonyl-ethyl-amino)-methyl]-6-ethoxy-4′-trifluoromethyl-biphenyl-3-yl}-acetic acid], for which the IC50 is 1 to 30 µM.
With `CCN(Cc1ccccc1)C(=O)N(CC)Cc1cc(C(F)(F)F)ccc1-c1cc(CC(=O)O)ccc1OC` [Compound 1-94, [2′-(3-Benzyl-1,3-diethyl-ureidomethyl)-6-methoxy-4′-trifluoromethyl-biphenyl-3-yl]-acetic acid] the figure was 1 to 30 µM.
Turning to `COc1ccc(CC(=O)O)cc1-c1ccc(C(F)(F)F)cc1CN(C(C)=O)C1CC1` [Compound 1-12, {2′-[(Acetyl-cyclopropyl-amino)-methyl]-6-methoxy-4′-trifluoromethyl-biphenyl-3-yl}-acetic acid], the IC50 fell in the range of 1 to 30 µM.
With `COc1ccc(CC(=O)O)cc1-c1ccc(C(F)(F)F)cc1CN(C(=O)OCc1ccccc1)C1CCC1` [Compound 1-34, {2′-[(Benzyloxycarbonyl-cyclobutyl-amino)-methyl]-6-methoxy-4′-trifluoromethyl-biphenyl-3-yl}-acetic acid] the figure was 1 to 30 µM; with `CCN(Cc1cc(C(F)(F)F)ccc1-c1cc(CC(=O)O)ccc1OC)C(C)=O` [Compound 1-2, {2′-[(Acetyl-ethyl-amino)-methyl]-6-methoxy-4′-trifluoromethyl-biphenyl-3-yl}-acetic acid], 1 to 30 µM; with `CCN(Cc1cc(F)ccc1-c1cc(CC(=O)O)ccc1OC)C(=O)C1CC1` [Compound 1-186, {2′-[(Cyclopropanecarbonyl-ethyl-amino)-methyl]-4′-fluoro-6-methoxy-biphenyl-3-yl}-acetic acid], 1 to 30 µM.
In the case of `CCN(Cc1cc(C(F)(F)F)ccc1-c1cc(CC(=O)O)ccc1OC)C(=O)C(F)(F)F` [Compound 1-32, (2′-{[Ethyl-(2,2,2-trifluoro-acetyl)-amino]-methyl}-6-methoxy-4′-trifluoromethyl-biphenyl-3-yl)-acetic acid] it was 1 to 30 µM; in that of `CCN(Cc1cc(C(F)(F)F)ccc1-c1cc(CC(=O)O)ccc1OC)C(=O)OC` [Compound 1-23, {2′-[(Ethyl-methoxycarbonyl-amino)-methyl]-6-methoxy-4′-trifluoromethyl-biphenyl-3-yl}-acetic acid], 1 to 30 µM.
As for `COc1ccc(CC(=O)O)cc1-c1ccc(C(F)(F)F)cc1CN(C(C)=O)C1CCCC1` [Compound 1-31, {2′-[(Acetyl-cyclopentyl-amino)-methyl]-6-methoxy-4′-trifluoromethyl-biphenyl-3-yl}-acetic acid], the IC50 is 1 to 30 µM.
In the case of `CCN(Cc1cc(C(F)(F)F)ccc1-c1cc(CC(=O)O)ccc1OC)C(=O)N[C@@H](C)c1ccc(Cl)cc1` [Compound 1-180, (2′-{3-[(S)-1-(4-Chloro-phenyl)-ethyl]-1-ethyl-ureidomethyl}-6-methoxy-4′-trifluoromethyl-biphenyl-3-yl)-acetic acid] it was 1 to 30 µM; in that of `CCN(Cc1cc(C(F)(F)F)ccc1-c1cc(CC(=O)O)ccc1OC)C(=O)NCc1ccc(Cl)c(Cl)c1` [Compound 1-152, {2′-[3-(3,4-Dichloro-benzyl)-1-ethyl-ureidomethyl]-6-methoxy-4′-trifluoromethyl-biphenyl-3-yl}-acetic acid], 1 to 30 µM; in that of `CCN(Cc1cc(C(F)(F)F)ccc1-c1cc(CC(=O)O)ccc1OC)C(=O)COC` [Compound 1-46, (2′-{[Ethyl-(2-methoxy-acetyl)-amino]-methyl}-6-methoxy-4′-trifluoromethyl-biphenyl-3-yl)-acetic acid], 1 to 30 µM.
In the case of `CCN(Cc1cc(C(F)(F)F)ccc1-c1cc(CC(=O)O)ccc1F)C(C)=O` [Compound 1-10, {2′-[(Acetyl-ethyl-amino)-methyl]-6-fluoro-4′-trifluoromethyl-biphenyl-3-yl}-acetic acid] it was 1 to 30 µM; in that of `CC(=O)N(Cc1cc(C(F)(F)F)ccc1-c1cc(CC(=O)O)ccc1F)CC(F)(F)F` [Compound 1-11, (2′-{[Acetyl-(2,2,2-trifluoro-ethyl)-amino]-methyl}-6-fluoro-4′-trifluoromethyl-biphenyl-3-yl)-acetic acid], 1 to 30 µM; in that of `CCN(Cc1cc(C(F)(F)F)ccc1-c1cc(CC(=O)O)ccc1OC)C(=O)COc1ccccc1` [Compound 1-48, (2′-{[Ethyl-(2-phenoxy-acetyl)-amino]-methyl}-6-methoxy-4′-trifluoromethyl-biphenyl-3-yl)-acetic acid], 1 to 30 µM.
In the case of `CCNC(=O)N(CC)Cc1cc(C(F)(F)F)ccc1-c1cc(CC(=O)O)ccc1OC` [Compound 1-181, [2′-(1,3-Diethyl-ureidomethyl)-6-methoxy-4′-trifluoromethyl-biphenyl-3-yl]-acetic acid] it was 1 to 30 µM; in that of `CCN(Cc1cc(C(F)(F)F)ccc1-c1cc(CC(=O)O)ccc1OC)C(=O)OCc1ccccc1Cl` [Compound 1-39, (2′-{[(2-Chloro-benzyloxycarbonyl)-ethyl-amino]-methyl}-6-methoxy-4′-trifluoromethyl-biphenyl-3-yl)-acetic acid], 1 to 30 µM.
Regarding `CCN(Cc1cc(F)ccc1-c1cc(CC(=O)O)ccc1OC)C(=O)OCc1ccccc1` [Compound 1-183, {2′-[(Benzyloxycarbonyl-ethyl-amino)-methyl]-4′-fluoro-6-methoxy-biphenyl-3-yl}-acetic acid], the IC50 fell in the range of 1 to 30 µM.
With `CCN(Cc1cc(C(F)(F)F)ccc1-c1cc(CC(=O)O)ccc1OC)C(=O)OCc1ccc(F)cc1` [Compound 1-41, (2′-{[Ethyl-(4-fluoro-benzyloxycarbonyl)-amino]-methyl}-6-methoxy-4′-trifluoromethyl-biphenyl-3-yl)-acetic acid] the figure was 1 to 30 µM; with `CCN(Cc1cc(C(F)(F)F)ccc1-c1cc(CC(=O)O)ccc1OC)C(=O)C1CC1` [Compound 1-33, {2′-[(Cyclopropanecarbonyl-ethyl-amino)-methyl]-6-methoxy-4′-trifluoromethyl-biphenyl-3-yl}-acetic acid], 1 to 30 µM.
In the case of `CCN(Cc1cc(C(F)(F)F)ccc1-c1cc(CC(=O)O)ccc1OC)C(=O)COCc1ccccc1` [Compound 1-92, (2′-{[(2-Benzyloxy-acetyl)-ethyl-amino]-methyl}-6-methoxy-4′-trifluoromethyl-biphenyl-3-yl)-acetic acid], the IC50 was 1 to 30 µM.
With `CCN(Cc1cc(C(F)(F)F)ccc1-c1cc(CC(=O)O)ccc1OC)C(=O)OCc1cc(Cl)cc(Cl)c1` [Compound 1-38, (2′-{[(3,5-Dichloro-benzyloxycarbonyl)-ethyl-amino]-methyl}-6-methoxy-4′-trifluoromethyl-biphenyl-3-yl)-acetic acid] the figure was 1 to 30 µM; with `CCN(Cc1cc(NS(C)(=O)=O)ccc1-c1cc(CC(=O)O)ccc1OC)C(=O)OCc1ccccc1` [Compound 1-155, {2′-[(Benzyloxycarbonyl-ethyl-amino)-methyl]-4′-methanesulfonylamino-6-methoxy-biphenyl-3-yl}-acetic acid], 1 to 30 µM.
In the case of `CCN(Cc1cc(C(F)(F)F)ccc1-c1cc(CC(=O)O)ccc1Cl)C(=O)OCc1ccccc1` [Compound 1-110, {2′-[(Benzyloxycarbonyl-ethyl-amino)-methyl]-6-chloro-4′-trifluoromethyl-biphenyl-3-yl}-acetic acid] it was 1 to 30 µM; in that of `CCN(Cc1cc(C(F)(F)F)ccc1-c1cc(CC(=O)O)ccc1OC)C(=O)NCc1cccc(Cl)c1` [Compound 1-177, {2′-[3-(3-Chloro-benzyl)-1-ethyl-ureidomethyl]-6-methoxy-4′-trifluoromethyl-biphenyl-3-yl}-acetic acid], 1 to 30 µM.

(Values after patent US8067445B2, “N,N-disubstituted aminoalkylbiphenyl antagonists of prostaglandin D2 receptors” (Panmira Pharmaceuticals, LLC, priority 2008, dated 2011).)
